Experimental findings from ChEMBL document CHEMBL3997807, “Isatin-β-thiocarbohydrazones: Microwave-assisted synthesis, antitumor activity and structure-activity relationship” (Eur J Med Chem, 2017) are described below.

One experiment relates to HeLa. As to the kind of experiment: Growth inhibition of human HeLa cells by MTT assay. Format: functional, cell-based.
A further experiment has as its system COS-7. As to the kind of experiment: Growth inhibition of African green monkey COS7 cells by MTT assay. To be noted: Chlorocebus aethiops. Format: functional, cell-based.
Experiment [1] has as its system Ehrlich. Kind of experiment: Antitumor activity against mouse EAC cells implanted in Swiss albino mouse assessed as increase in mean life span at 0.5 mg for 9 days relative to control. Format: functional.
Experiment [2] deals with Ehrlich. Kind of experiment: Antitumor activity against mouse EAC cells implanted in Swiss albino mouse assessed as tumor volume in ascitic fluid at 0.5 mg for 9 days (reference value: 9.85 mL). It counts as functional.
For experiment [3], the system named is Ehrlich. Kind of experiment: Antitumor activity against mouse EAC cells implanted in Swiss albino mouse assessed as viable tumor cell count in ascitic fluid at 0.5 mg for 9 days (reference value: 83.2 10^6/100uL). It counts as functional.
Experiment [4] has as its system Ehrlich. As to the kind of experiment: Antitumor activity against mouse EAC cells implanted in Swiss albino mouse assessed as hemoglobin count in blood at 0.5 mg for 9 days (reference value: 8.15 g/dL). It counts as functional.
In experiment [5] the test system is Ehrlich. As to the kind of experiment: Antitumor activity against mouse EAC cells implanted in Swiss albino mouse assessed as RBC count in blood at 0.5 mg for 9 days (reference value: 3.69 10^6/mm3). Format: functional.
In experiment [6] the test system is Ehrlich. As to the kind of experiment: Antitumor activity against mouse EAC cells implanted in Swiss albino mouse assessed as WBC count in blood at 0.5 mg for 9 days (reference value: 23.96 10^3/mm3). It counts as functional.

With `COc1ccc(/C=N/NC(=S)N/N=C2\C(=O)Nc3ccc(C)cc32)c(OC)c1`, the IC50 with HeLa and in the experiment with COS-7 was more than 50 µM each time.

As for `O=C1Nc2ccc(Br)cc2/C1=N/NC(=S)N/N=C/c1c(F)cccc1Cl`, the results for the IC50 with HeLa and in the experiment with COS-7 were 1.61 µM and 2.56 µM, respectively. Besides, in the experiment on Ehrlich [1], the ILS is reported as 72.4%. For the same compound, the Activity came out at 6.7 mL in the experiment on Ehrlich [2]; 57.5 ×10⁶ /100microL with Ehrlich [3]; 9.96 g/dL in the experiment with Ehrlich [4]; 4.09 ×10⁶ /mm3 in the experiment on Ehrlich [5]; 13.05 ×10³ /mm3 in the experiment with Ehrlich [6].

As for `COc1ccc(/C=N/NC(=S)N/N=C2\C(=O)Nc3ccc(Br)cc32)cc1O`, the IC50 with HeLa was 2.22 µM; in the experiment with COS-7, 3.09 µM. Further, the ILS in the experiment with Ehrlich [1] turned out to be 24.1%. Besides, the Activity was 7.8 mL with Ehrlich [2]; 66.78 ×10⁶ /100microL with Ehrlich [3]; 9.11 g/dL in the experiment with Ehrlich [4]; 3.86 ×10⁶ /mm3 in the experiment with Ehrlich [5]; 19.48 ×10³ /mm3 in the experiment with Ehrlich [6].

For the compound `Cc1ccc2c(c1)/C(=N/NC(=S)N/N=C/c1ccc(Br)cc1)C(=O)N2`, the IC50 with HeLa and with COS-7 was more than 50 µM each time.

As for `Cc1ccc2c(c1)/C(=N/NC(=S)N/N=C/c1c(F)cccc1Cl)C(=O)N2`, the IC50 in the experiment on HeLa came to 1.51 µM; in the experiment with COS-7, 2.19 µM. Also, the ILS with Ehrlich [1] was 72.4%. The Activity in the experiment on Ehrlich [2] came out at 6.2 mL; with Ehrlich [3] it was 51.52 ×10⁶ /100microL; in the experiment with Ehrlich [4], 10.09 g/dL; in the experiment with Ehrlich [5], 4.19 ×10⁶ /mm3; with Ehrlich [6], 12.26 ×10³ /mm3.

As to `COc1ccc(/C=N/NC(=S)N/N=C2\C(=O)Nc3ccc(Br)cc32)c(OC)c1`, the IC50 with HeLa and in the experiment on COS-7 was more than 50 µM throughout.

As for `COc1ccc(/C=N/NC(=S)N/N=C2\C(=O)Nc3ccc(C)cc32)cc1O`, the IC50 with HeLa turned out to be 2.73 µM; with COS-7, 3.19 µM. In addition, the ILS in the experiment on Ehrlich [1] stood at 110.9%. Moreover, the Activity turned out to be 3.26 mL in the experiment on Ehrlich [2]; 38.75 ×10⁶ /100microL with Ehrlich [3]; 11.15 g/dL with Ehrlich [4]; 4.46 ×10⁶ /mm3 in the experiment with Ehrlich [5]; 9.23 ×10³ /mm3 with Ehrlich [6].

Turning to `O=C1Nc2ccc(Br)cc2/C1=N/NC(=S)N/N=C/c1ccccc1Br`, the IC50 in the experiment on HeLa and in the experiment with COS-7 was more than 50 µM throughout.

Take `O=C1Nc2ccc(Br)cc2/C1=N/NC(=S)N/N=C/c1ccc(-c2ccccc2)cc1`: the IC50 with HeLa was 3.25 µM; with COS-7 it was more than 50 µM.

Consider `Cc1ccc2c(c1)/C(=N/NC(=S)N/N=C/c1cc3ccccc3c3ccccc13)C(=O)N2`, for which the IC50 in the experiment with HeLa and in the experiment with COS-7 was more than 50 µM each time.

Turning to `O=C1Nc2ccc(Br)cc2/C1=N/NC(=S)N/N=C/c1ccc(Br)cc1`, the IC50 in the experiment with HeLa was 4.68 µM; with COS-7, 5.18 µM.

Consider `Cc1ccc(O)c(/C=N/NC(=S)N/N=C2\C(=O)Nc3ccc(Br)cc32)c1`, for which the IC50 in the experiment with HeLa and with COS-7 was more than 50 µM throughout.

For `Cc1ccc2c(c1)/C(=N/NC(=S)N/N=C/c1c(Cl)cccc1Cl)C(=O)N2`, the IC50 in the experiment with HeLa was 1.79 µM; with COS-7 it was 3.87 µM.

Take `Cc1ccc2c(c1)/C(=N/NC(=S)N/N=C/c1ccc3ccccc3c1)C(=O)N2`: the half-maximal inhibitory concentration (IC50) in the experiment with HeLa and with COS-7 was more than 50 µM throughout.

Consider `O=C1Nc2ccc(Br)cc2/C1=N/NC(=S)N/N=C/c1ccc2ccccc2c1`, for which the IC50 with HeLa and with COS-7 was more than 50 µM in each case.

Regarding `Cc1ccc2c(c1)/C(=N/NC(=S)N/N=C/c1ccccn1)C(=O)N2`, the IC50 amounted to 3.15 µM with HeLa and 2.12 µM in the experiment with COS-7. In the experiment with Ehrlich [1], the ILS was found to be 189.6%. For the same compound, the Activity in the experiment with Ehrlich [2] turned out to be 2.52 mL; in the experiment with Ehrlich [3], 24.22 ×10⁶ /100microL; in the experiment on Ehrlich [4], 12.93 g/dL; with Ehrlich [5], 5.28 ×10⁶ /mm3; in the experiment with Ehrlich [6], 7.89 ×10³ /mm3.

As to `O=C1Nc2ccc(Br)cc2/C1=N/NC(=S)N/N=C/c1c(Cl)cccc1Cl`, the results for the IC50 in the experiment with HeLa and in the experiment on COS-7 were 3.53 µM and 6.73 µM, respectively.

With `Cc1ccc2c(c1)/C(=N/NC(=S)N/N=C/c1ccccc1Br)C(=O)N2`, the IC50 in the experiment on HeLa and in the experiment with COS-7 was more than 50 µM each time.

As for `Cc1ccc(O)c(/C=N/NC(=S)N/N=C2\C(=O)Nc3ccc(C)cc32)c1`, the concentration for half-maximal inhibition (IC50) in the experiment with HeLa and in the experiment with COS-7 was more than 50 µM in each case.

For the compound `O=C1Nc2ccc(Br)cc2/C1=N/NC(=S)N/N=C/c1cc2ccccc2c2ccccc12`, the IC50 in the experiment on HeLa and in the experiment on COS-7 was more than 50 µM in each case.

For the compound `Cc1ccc2c(c1)/C(=N/NC(=S)N/N=C/c1ccc(-c3ccccc3)cc1)C(=O)N2`, the IC50 in the experiment with HeLa and in the experiment on COS-7 was more than 50 µM each time.

`COc1cccc2c1C(=O)c1c(O)c3c(c(O)c1C2=O)C[C@@](O)(C(=O)CO)C[C@@H]3O[C@H]1C[C@H](N)[C@H](O)[C@H](C)O1` [DOXORUBICIN]: the IC50 in the experiment on HeLa was found to be 2.05 µM; in the experiment with COS-7, 3.04 µM.

In the case of `O=c1[nH]cc(F)c(=O)[nH]1` [FLUOROURACIL], the ILS in the experiment with Ehrlich [1] is 237.9%. The Activity stood at 1.6 mL in the experiment with Ehrlich [2]; 20.17 ×10⁶ /100microL in the experiment on Ehrlich [3]; 12.96 g/dL with Ehrlich [4]; 5.21 ×10⁶ /mm3 in the experiment with Ehrlich [5]; 8.86 ×10³ /mm3 in the experiment with Ehrlich [6].
